Values quoted from earlier work as cited in patent US10548855B2, “Memantine combinations and use” (CHASE PHARMACEUTICALS CORPORATION, priority 2016, dated 2020).

Test system: mice
Conditions: water maze, 2 mg/kg

## CC12CC3CC(C)(C1)CC(N)(C3)C2 [memantine, 3,5-dimethyladamantan-1-amine]
  effect on scopolamine-induced learning deficits: reverses scopolamine-induced learning deficits
